Laboratory results as given in ChEMBL document CHEMBL1201862, “PubChem BioAssay data set” (2004).
Activity calls are given as the source filed them.

Tests used:
[1] = target: T1, Low molecular weight phosphotyrosine protein phosphatase (Homo sapiens, UniProt P24666); assay: LMPTP phosphatase inhibitors, dose response, biochemical, OMFP substrate, fluorescence intensity, set 2 (AID 743307); assay type: functional
T1 sequence (P24666 whole entry): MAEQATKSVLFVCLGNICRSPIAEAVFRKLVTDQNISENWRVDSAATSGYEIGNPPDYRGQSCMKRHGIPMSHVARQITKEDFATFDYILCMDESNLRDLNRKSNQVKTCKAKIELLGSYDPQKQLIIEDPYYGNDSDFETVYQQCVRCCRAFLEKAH

[2] = target: T1, Low molecular weight phosphotyrosine protein phosphatase; assay: LMPTP phosphatase inhibitors, colorimetric pNPP readout, dose response, orthogonal assay, biochemical, absorbance, pNPP substrate, LMPTP-A isoform, set 2 (AID 743308); assay type: functional
[3] = target: T2, Microphthalmia-associated transcription factor (Homo sapiens, UniProt O75030); assay: TRPM1 promoter luciferase signal decrease, dose response, MITF inhibitor project, cell-based, SK-MEL-5, cherry-picked, set 3 (AID 493073); assay type: functional
T2 sequence (O75030 whole entry): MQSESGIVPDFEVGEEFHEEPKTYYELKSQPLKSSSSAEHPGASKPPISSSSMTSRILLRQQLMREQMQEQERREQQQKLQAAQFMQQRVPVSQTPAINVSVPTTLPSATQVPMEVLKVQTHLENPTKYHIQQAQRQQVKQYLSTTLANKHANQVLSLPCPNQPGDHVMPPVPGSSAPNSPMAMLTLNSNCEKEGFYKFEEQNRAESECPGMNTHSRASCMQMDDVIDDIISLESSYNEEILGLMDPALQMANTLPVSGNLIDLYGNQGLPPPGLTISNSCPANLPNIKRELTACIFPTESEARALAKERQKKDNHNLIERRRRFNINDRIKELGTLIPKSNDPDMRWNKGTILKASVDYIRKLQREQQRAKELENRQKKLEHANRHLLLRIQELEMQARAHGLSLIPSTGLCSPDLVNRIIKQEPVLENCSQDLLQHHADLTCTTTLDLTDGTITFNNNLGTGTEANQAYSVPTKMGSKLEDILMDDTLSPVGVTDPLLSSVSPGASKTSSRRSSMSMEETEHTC

[4] = NIH-3T3 fibroblast cytotoxicity, dose response, cytotoxicity control, cell-based, fluorescence, Alamar Blue, secondary assay (AID 2327); assay type: functional;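 further: NIH-3T3 mouse fibroblasts cultured with fluconazole at 8 µg/mL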
Cytochrome P450 2C9 = Cytochrome P450 2C9 (Homo sapiens, UniProt P11712)
Chain of Cytochrome P450 2C9 (P11712 whole entry): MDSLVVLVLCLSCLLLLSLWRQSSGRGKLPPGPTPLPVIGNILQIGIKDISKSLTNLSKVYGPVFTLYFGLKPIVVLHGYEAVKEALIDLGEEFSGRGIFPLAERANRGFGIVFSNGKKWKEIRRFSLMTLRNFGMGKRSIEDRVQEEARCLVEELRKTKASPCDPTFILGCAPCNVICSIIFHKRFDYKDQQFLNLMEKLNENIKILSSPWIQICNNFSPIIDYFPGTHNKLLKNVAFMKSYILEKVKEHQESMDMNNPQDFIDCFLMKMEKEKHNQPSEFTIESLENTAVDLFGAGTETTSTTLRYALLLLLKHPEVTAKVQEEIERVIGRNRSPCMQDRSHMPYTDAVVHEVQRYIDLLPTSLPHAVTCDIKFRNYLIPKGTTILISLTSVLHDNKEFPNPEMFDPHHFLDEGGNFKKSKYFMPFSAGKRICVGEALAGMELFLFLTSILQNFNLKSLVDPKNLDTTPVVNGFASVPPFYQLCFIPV

[5] = cytotoxicity in HEK-293T cells, dose response, cytotoxicity control for TCR NF-kB inhibitor project, luminescence, T-cell screen hits (AID 489026); assay type: functional, cell-based;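 further: cells exposed to compound about 14 hours before the viability readout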
[6] = inhibitors of PGC1a acetylation in cells, dose response, cell-based, cherry-picked samples (AID 720514); assay type: functional;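 further: potency may reflect raised or lowered acetylation signal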
[7] = growth suppression of beta-catenin-knockout colon cells, dose response, cell-based, HCT116, human colon tumor (AID 1045); assay type: functional;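 further: HCT116 colon tumor cells with beta catenin knocked out; cells exposed to compound for 60 hours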
[8] = C. albicans growth with fluconazole, confirmation, fluorescence, retest (AID 2467); assay type: functional, cell-based
Cytochrome P450 3A4 = Cytochrome P450 3A4 (Homo sapiens, UniProt P08684);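 further: CYP3A4 tested as one member of a cytochrome P450 panel screen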
Chain of Cytochrome P450 3A4 (P08684 whole entry): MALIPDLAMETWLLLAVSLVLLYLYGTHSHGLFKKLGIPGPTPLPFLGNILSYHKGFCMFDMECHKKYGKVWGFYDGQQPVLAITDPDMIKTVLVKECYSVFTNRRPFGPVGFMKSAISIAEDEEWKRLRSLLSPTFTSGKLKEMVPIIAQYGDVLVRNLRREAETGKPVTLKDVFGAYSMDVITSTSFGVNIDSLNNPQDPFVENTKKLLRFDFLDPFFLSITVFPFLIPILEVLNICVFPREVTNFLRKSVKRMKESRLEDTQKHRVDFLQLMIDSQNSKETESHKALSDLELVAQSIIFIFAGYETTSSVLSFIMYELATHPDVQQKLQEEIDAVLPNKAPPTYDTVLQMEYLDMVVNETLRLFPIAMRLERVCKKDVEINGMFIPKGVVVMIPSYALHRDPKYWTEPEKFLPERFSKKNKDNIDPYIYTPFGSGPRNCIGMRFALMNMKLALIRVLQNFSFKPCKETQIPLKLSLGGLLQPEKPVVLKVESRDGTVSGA

[9] = growth suppression of PTEN-null colon cells, dose response, cell-based, HCT116 PTEN knockout (AID 1047); assay type: functional;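 further: HCT116 colon tumor cells with PTEN knocked out; cells exposed to compound for 60 hours before readout; potency for loss of cell viability measured by luminescence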
Nonstructural protein 1 = Nonstructural protein 1 (Influenza A virus, UniProt Q194T2); assay type: functional, Influenza A virus (A/California/07/2009(H1N1))
Chain of Nonstructural protein 1 (Q194T2 whole entry): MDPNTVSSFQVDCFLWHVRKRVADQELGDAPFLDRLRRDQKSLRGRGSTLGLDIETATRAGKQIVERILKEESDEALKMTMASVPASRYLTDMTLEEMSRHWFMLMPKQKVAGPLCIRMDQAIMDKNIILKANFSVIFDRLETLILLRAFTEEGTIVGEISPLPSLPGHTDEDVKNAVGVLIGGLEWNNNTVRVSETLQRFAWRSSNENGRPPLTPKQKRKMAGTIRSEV

[10] = HEK293T cell cytotoxicity, dose response, cytotoxicity control, CellTiter-Glo luminescence, dry powder, set 2 (AID 720595); assay type: functional, cell-based; conditions: HEK293
[11] = HeLa cell cytotoxicity, dose response, cytotoxicity control, CellTiter-Glo luminescence, dry powder, set 2 (AID 720593); assay type: functional, cell-based
[12] = Luminescence-based counterscreen assay for KLF5 inhibitors: dose response cell-based high throughput screening assay to identify cytotoxic compounds using the IEC-6 intestinal epithelial cell line. [Related pubchem assays: 1700 (Primary screen.), 1834 (Confirmation screen.), 1858 (Summary AID.), 1905 (Counterscreen.)]; assay type: functional
[13] = Vero cell cytotoxicity, dose response, cytotoxicity control for Vif-APOBEC3G degradation inhibitor project, Vero cells (AID 1117358); assay type: functional; conditions: Human immunodeficiency virus 1, Vero
[14] = THP-1 cell cytotoxicity, dose response, cytotoxicity control for Vif-APOBEC3G degradation inhibitor project, THP-1 cells (AID 1117359); assay type: functional; conditions: Human immunodeficiency virus 1, THP-1
[15] = target: T3, Carboxy-terminal domain RNA polymerase II polypeptide A small phosphatase 1 (Homo sapiens, UniProt Q9GZU7); assay: inhibitors of CTDSP1, concentration-response testing, biochemical assay, absorbance-based, actives from ultra-high-throughput screening (AID 540297); assay type: functional
T3 sequence (Q9GZU7 whole entry): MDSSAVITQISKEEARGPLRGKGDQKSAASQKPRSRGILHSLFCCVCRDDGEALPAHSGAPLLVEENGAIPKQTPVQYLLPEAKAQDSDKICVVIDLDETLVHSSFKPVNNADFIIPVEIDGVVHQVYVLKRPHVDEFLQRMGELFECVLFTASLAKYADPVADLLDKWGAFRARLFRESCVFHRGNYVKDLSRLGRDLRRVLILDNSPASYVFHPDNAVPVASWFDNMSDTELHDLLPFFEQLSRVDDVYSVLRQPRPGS

Protein Tat = Protein Tat (Human immunodeficiency virus type 1 group M subtype B (isolate HXB2)(HIV-1), UniProt P04608); assay type: functional;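 further: tat binding to TAR RNA read out by fluorescence polarization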
Chain of Protein Tat (P04608 whole entry): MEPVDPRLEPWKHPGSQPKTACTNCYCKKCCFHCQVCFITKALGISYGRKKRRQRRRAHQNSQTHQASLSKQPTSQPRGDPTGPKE

Transthyretin = Transthyretin (Homo sapiens, UniProt P02766); assay: Luminescence-based cell-based high throughput dose response assay to identify activators of Transthyretin (TTR) transcription.; assay type: functional
[16] = Counterscreen for inhibitors of Trypanosoma brucei methionyl tRNA synthetase (MetRS): Luminescence-based cell-based high throughput dose response assay to identify compounds that are cytotoxic to Jurkat human T lymphocyte cells.; assay type: functional
[17] = target: T4, Methionyl-tRNA synthetase, putative (Trypanosoma brucei brucei, UniProt Q38C91); assay type: functional, Trypanosoma brucei brucei strain 927/4 GUTat10.1
T4 sequence (Q38C91 whole entry): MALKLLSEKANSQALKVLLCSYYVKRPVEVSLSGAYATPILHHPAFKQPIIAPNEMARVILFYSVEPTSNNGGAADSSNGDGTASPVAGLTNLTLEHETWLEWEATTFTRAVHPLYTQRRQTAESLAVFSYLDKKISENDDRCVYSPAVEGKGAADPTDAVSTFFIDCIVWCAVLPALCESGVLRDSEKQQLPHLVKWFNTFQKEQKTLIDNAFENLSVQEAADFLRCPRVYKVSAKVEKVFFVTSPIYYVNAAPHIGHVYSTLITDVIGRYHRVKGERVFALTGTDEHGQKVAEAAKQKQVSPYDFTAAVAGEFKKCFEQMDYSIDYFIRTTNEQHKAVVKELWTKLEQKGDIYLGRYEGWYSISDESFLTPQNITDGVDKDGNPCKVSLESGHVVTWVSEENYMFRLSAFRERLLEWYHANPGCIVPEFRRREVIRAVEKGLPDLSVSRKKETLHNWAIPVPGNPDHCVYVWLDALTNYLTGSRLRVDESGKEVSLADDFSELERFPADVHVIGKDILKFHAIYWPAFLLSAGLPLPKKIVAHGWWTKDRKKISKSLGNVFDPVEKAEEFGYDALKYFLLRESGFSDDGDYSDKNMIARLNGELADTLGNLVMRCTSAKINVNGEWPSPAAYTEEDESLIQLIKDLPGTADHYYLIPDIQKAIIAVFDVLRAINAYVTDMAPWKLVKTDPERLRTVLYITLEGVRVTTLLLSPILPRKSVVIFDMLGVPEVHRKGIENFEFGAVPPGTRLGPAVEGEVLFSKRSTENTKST

[18] = Late stage counterscreen for inhibitors of Trypanosoma brucei methionyl tRNA synthetase (MetRS): Luminescence-based cell-based high throughput dose response assay to identify compounds that are cytotoxic to Jurkat human T lymphocyte cells.; assay type: functional
[19] = target: T4, Methionyl-tRNA synthetase, putative; assay type: functional, Trypanosoma brucei brucei strain 927/4 GUTat10.1; remark: listed apart in the source
[20] = T. brucei MetRS inhibitors, orthogonal readout, late-stage follow-up, orthogonal assay for T. brucei MetRS inhibitor project, biochemical, fluorescence polarization, dose response (AID 686969)

For `CN1CCN(c2nc(-c3ccccc3)nc3ccccc23)CC1`, the IC50 [1] was > 80 µM (inactive) and the IC50 [2] was > 80 µM (inactive).

With `Cn1c(SC2=CS(=O)(=O)c3ccccc32)nc2ccccc21` the AC50 [3] was 6.72 µM (active), the EC50 [4] was 7.76 µM (inconclusive) and the AC50 (Cytochrome P450 2C9) was 28.2 µM (inconclusive). For the same molecule, the IC50 [5] was > 80 µM (inactive), the AC50 [6] was 11.3 µM (active) and the EC50 [7] was 1.97 µM (active). For the same molecule, the EC50 [8] was > 38 µM (not active), the AC50 (Cytochrome P450 3A4) was 39.8 µM (inconclusive) and the EC50 [9] was 2.87 µM (active).

With `O=C(CSc1n[nH]c(-c2ccccn2)n1)Nc1ccc(Cl)cc1` the IC50 (Nonstructural protein 1) was 8.79 µM (active), the AC50 [10] was 2.2 µM (active) and the AC50 [11] was 47.5 µM (active). The IC50 [12] was 5.14 µM (active).

For `COc1cc(C(=O)NCc2nnc(SCC(=O)Nc3nc4ccc(C)cc4s3)o2)cc(OC)c1OC`, the CC50 [13] was > 40 µM (active).

In the case of `CN(CC(=O)Nc1ccc(F)cc1)C(=O)c1cc(-c2ccco2)nc2ccccc12`, the CC50 [14] is reported as > 40 µM (active), the IC50 [15] is reported as 5.11 µM (active) and the IC50 (Protein Tat) is reported as > 100 µM (active).

In the case of `CC1CN(Cc2ccccc2)c2nc3c(c(=O)n(CC(N)=O)c(=O)n3C)n2C1` (stereo not given), the EC50 (Transthyretin) is reported as > 167 µM (inactive).

In the case of `COc1ccc(CNC(=O)CSc2n[nH]c3c4cc(F)ccc4nc-3n2)cc1`, the IC50 [16] is reported as 83.3 µM (inactive), the IC50 [17] is reported as 4.39 µM (active) and the IC50 [18] is reported as > 83.3 µM (inactive). The IC50 [19] was 0.879 µM (active) and the IC50 [20] was > 1.54 µM (active).
